Data on four molecules can be found in PMC4721923 (PLoS ONE, 2015).

SMILES strings stand for the structures. Like-named read-outs stand apart in the source and are kept apart here.

Assay type in all cases: cell-based, human
Data set [1] relates to HEL 92.1.7 cells (erythroleukemia). Nature of the data set: Chemosensitivity assay (MTT-assay), HEL 92.1.7. The settings on record: 96 hours of incubation, mean ± SEM. As to the method:
(§1) Depending on the characteristics of the cells, two different assays were performed. For adherently growing cells (HaCaT, HT-29, NCI-H460, SK-MEL-3, MG-63, Capan-1), cytotoxic and cytocidal effects were determined in the crystal violet assay, whereas for loosely adherent cells (LNCaP, SK-ES-1) and cells growing in suspension (HEL 92.1.7, Jurkat, U-937) the MTT-assay was used with minor modifications. In brief, 1.5 · 10^3 (HaCaT, HT-29, NCI-H460, SK-MEL-3, MG-63, Capan-1) or 5 · 10^3 (Jurkat, U-937, HEL92.1.7, LNCaP, SK-ES-1) cells per well were seeded into flat-bottom 96-well plates (Sarstedt, Nümbrecht, Germany). All compounds were used as solutions prepared in DMSO and tested at final concentrations (8 replicates per concentration) of 1, 3, 10, 30 and 50 μM. In case of the vehicle control and test compounds, the final DMSO concentration amounted to 0.1%. Absorbance was measured at 580 nm in a 96-well plate reader (GENios pro microplate reader, Tecan, Salzburg, Austria). Effects were quantified as previously described for both assays.

Data set [2] relates to Capan-1 cells (pancreatic adenocarcinoma). In words: Chemosensitivity assay (crystal violet assay), Capan-1. The settings on record: 96 hours of incubation, mean ± SEM. As to the method: as §1
Data set [3] has as its system NCI-H460 cells (large cell lung cancer). In words: Chemosensitivity assay (crystal violet assay), NCI-H460. The settings on record: 96 hours of incubation, mean ± SEM. The procedure: as §1
In a further data set the test system is p53 in HT-29 cells. In words: p53 expression by immunoblotting, HT-29. The settings on record: HT-29 nuclear extracts; 10 μM; 24 hours. The procedure: The expression of the tumor suppressor p53 by NCI-H460 and HT-29 cells was determined after incubating the cells with compounds 1, 2, 4 and 5 at different concentrations for 24 hours. The cells (from a 10-cm culture dish, 70% confluency) were washed twice with PBS and harvested by scraping after addition of ice-cold buffer A (10 mM HEPES pH = 7.9, 10 mM KCl, 0.1 mM EDTA, 0.1 mM EGTA, protease inhibitor mix (Sigma-Aldrich)). After adding Nonidet P-40 (NP-40) (Sigma, Taufkirchen, Germany) to a final concentration of 1%, the cell suspensions were vortexed and subsequently centrifuged at 13000 g and 4°C for 30 seconds. The pellets were re-suspended in buffer B (buffer A + 400 mM NaCl, 1% NP-40) and gently agitated using a Sarmix M2000 (Sarstedt, Nümbrecht, Germany) at 4°C for 15 min, followed by centrifugation (13000 g, 4°C, 5 min; Microfuge; Eppendorf, Hamburg, Germany). The concentration of soluble protein was determined according to Bradford using the Bio-Rad Protein Assay (Bio-Rad Laboratories, Munich, Germany).
An amount of 30 μg total protein of each sample and 8 μL of a biotinylated molecular weight standard (1:6 dilution) (Cell Signaling, Danvers, MA, USA) was separated by SDS-PAGE (12% gel) and afterwards electroblotted (150 V, 30 min) to nitrocellulose membrane (Peqlab, Erlangen, Germany). To prevent unspecific binding, the membranes were treated with milk powder (5% (m/v) in buffer (150 mM NaCl, 20 mM Tris, 0.1% Tween 20, pH = 7.6)) before incubation with anti-p53 rabbit mAb (dilution 1:1000) (Cell Signaling) and anti-histone H2B Ab (dilution 1:1000) (Cell Signaling) as loading control at 4°C for 14 hours. The primary antibodies and the “protein ladder” were simultaneously detected with a horseradish peroxidase (HRP)-coupled donkey anti rabbit mAb (dilution 1:1000) (Santa Cruz biotechnology, Heidelberg, Germany) or the anti-biotin HRP-coupled antibody (dilution 1:5000) (Cell Signaling), respectively. The incubation with the secondary antibody was performed at room temperature for 1 hour. The bands were detected by […] using the Pierce ECL Western Blotting Substrate (Thermo Scientific, Dreieich, Germany). After exposure, the x-ray film (Amersham Hyperfilm ECL, GE Healthcare, München, Germany) was developed (CAWOMAT 2000 IR, CAWO, Schrobenhausen, Germany) and analyzed using a GS-710 imaging densitometer and Quantity One V. 4 software (Bio-Rad Laboratories, Munich, Germany).

For the next data set, the system named is NCI-H460 cells. In words: Quantification of cell-associated compound by HPLC, NCI-H460. The settings on record: 30 μM, 10 minutes, mean ± SEM. As to the method:
Accumulation of bendamustine and selected bendamustine esters by HT-29 and NCI-H460 cells was determined by HPLC. For this purpose, 1.5 · 10^6 cells/well were seeded into 6-well plates (Sarstedt, Nümbrecht, Germany). After two days of cultivation, the cells were incubated in PBS containing 30 μM of 1, 2, 4 or 5 and 200 μM of umbelliferone as internal standard at 37°C for 10 minutes. After removing the medium, the cells were washed three times with PBS. Untreated cells were detached with trypsin/EDTA and counted. The treated cells were harvested by adding 200 μL of ice-cold perchloric acid (1 M) and scraping. Subsequently, the samples were vortexed and sonicated (Branson 3200 ultrasonic cleaner; Branson, Danbury, USA) for 10 minutes. After 5 minutes of centrifugation (13000 g, 4°C), the supernatants were filtered (0.2 μm Phenex; Phenomenex, Aschaffenburg, Germany) and directly analyzed by HPLC with fluorescence detection according to a recently reported validated procedure. The normalization of the measured concentration to the cell count allowed for a calculation of the cell-associated amount of the respective test compound. Additionally, the ratio of cell-associated substance compared to the applied concentration (30 μM) was calculated based on an average cell volume of 3 pL.

In the case of `Cn1c(CCCC(=O)OCCN2CCCC2)nc2cc(N(CCCl)CCCl)ccc21` [Compound 5], the IC50 amounted to 1000 ± 10 nM in data set [1] (Homo sapiens, HEL 92.1.7, 96 h); 120 ± 20 nM in data set [2] (Homo sapiens, CAPAN-1, 96 h); 900 ± 10 nM in data set [3] (Homo sapiens, read-out: IC50). Moreover, the p53 expression result in the data set with p53 in HT-29 cells was “increased the expression of p53”. Also, the “amount of cell-associated compound” value in the data set with NCI-H460 cells is recorded as 1.89 ± 0.14 nmol/10^6 cells.
`Cn1c(CCCC(=O)O)nc2cc(N(CCCl)CCCl)ccc21` [Compound 1, bendamustine, reference compound]: the IC50 is 86200 ± 2600 nM in data set [1]; over 80000 nM in data set [1] (Homo sapiens, HEL 92.1.7, 96 h); 18900 ± 4500 nM in data set [2]; under 20000 nM in data set [2] (Homo sapiens, CAPAN-1, 96 h); “only very weakly active” in data set [3]; 90000 ± 4300 nM in data set [3] (Homo sapiens, read-out: IC50). In addition, the p53 expression result in the data set on p53 in HT-29 cells is “slight induction”. Besides, in the data set on NCI-H460 cells, the “amount of cell-associated compound” value is reported as 0.03 ± 0.001 nmol/10^6 cells.
For `COC(=O)CCCc1nc2cc(N(CCCl)CCCl)ccc2n1C` [Compound 2], the IC50 in data set [1] (Homo sapiens, HEL 92.1.7, 96 h) worked out at 2500 ± 100 nM; in data set [2] (Homo sapiens, CAPAN-1, 96 h), 600 ± 40 nM; in data set [3] (Homo sapiens, read-out: IC50), 4800 ± 300 nM. Besides, the p53 expression result with p53 in HT-29 cells is reported as “increased the expression of p53”. In addition, the “amount of cell-associated compound” value in the data set on NCI-H460 cells was 0.28 ± 0.06 nmol/10^6 cells.
The matching figures for `Cn1c(CCCC(=O)OCCN2CCOCC2)nc2cc(N(CCCl)CCCl)ccc21` [Compound 4]: 2400 ± 1000 nM, 1400 ± 10 nM, 9700 ± 1300 nM, “increased the expression of p53” and 0.59 ± 0.04 nmol/10^6 cells.
